This note sets out measurements from patent US9096536B2, “Asymmetrically substituted anthrapyridazone derivatives as cytostatics” (BS-154 S.P. ZO.O., priority 2011, dated 2015).

The test system of assay [1] is human prostate cancer cell line PC3. Nature of the assay: Cytostatic activity in vitro, prostate cancer PC3. The assay is classed as cell-based. As to conditions: 72 h continuous exposure. From the text:
(§1) Table 5 presents activity in vitro of anthrapiridazone derivatives towards three cell lines of prostate cancer, naturally multidrug resistant, in comparison with references doxorubicin, mitoxantrone and taxol.

Assay [2] deals with HL60/VINC. The assay is described as follows: Substrate properties: activity against HL60/VINC in the presence of cyclosporine A (MDR-1 pump inhibitor). In kind it is cell-based, human. Particulars: FIG. 2. From the text:
FIG. 2 shoes experimentally determined substrate properties of selected antgraoyridazone derivatives vs. Doxorubicin and Mitroxantrone. Activity in vitro against human promyelacytic leykemia cell line HL60/VINC in the presence of cyclosporine A (MDR-1 pump inhibitor).

Assay [3] relates to human promyelocytic leukemia cell line HL-60. Nature of the assay: Cytostatic activity in vitro, HL-60 sensitive line. In kind it is cell-based. As to conditions: 50% inhibition of cell growth after 72 h continuous exposure; read-out: HL60 IC50. From the text:
(§2) Tables 3 and 4 show cytostatic activity in vitro of 2,6-disubstituted and 2- or 6-monosubstituted (Tab.3), and of 2,5-disubstituted-(Tab.-4) tetracyclic anthrapyridazone derivatives using leukemia cell line HL-60 and the resistant cell sublines with resistance induced by vincristine (MDR-1) or doxorubicin (MRP). Activity of compounds is differentiated depending on their structure, but in all cases resistance indexes are more advantageous in comparison with reference compounds: doxorubicin and mitoxantrone.

Assay [4] concerns HL60/DX. The assay is described as follows: Substrate properties: activity against HL60/DX in the presence of BSO (MRP pump inhibitor). The assay is classed as cell-based, human. As to conditions: FIG. 3. From the text: Activity in vitro against human promyelolytic leukemia HL60/DX in the presence of D-L-buthionine-(S,R)-sulphoximine (BSO), MRP pump inhibitor.
In assay [5] the test system is human breast cancer cell line MCF7. Nature of the assay: Cytostatic activity in vitro, breast cancer MCF7. In kind it is cell-based. Particulars: 72 h continuous exposure. From the text: (§3) It should be mentioned that resistance index is above one order of magnitude better in comparison with doxorubicin and mitoxantrone.
Assay [6] has as its system human colon adenocarcinoma HT29. Nature of the assay: Cytostatic activity in vitro, colon adenocarcinoma HT29. The assay is classed as cell-based. Particulars: 72 h continuous exposure. The text has this:
(§4) Table 7 presents activity in vitro of selected anthrapyridazone derivatives according to the invention towards sensitive and resistant (MDR-1 type) cell line of human colon adenocarcinoma with resistance induced by mitoxantrone.

Assay [7] concerns human prostate cancer cell line DU145. The assay is described as follows: Cytostatic activity in vitro, prostate cancer DU145. The assay is classed as cell-based. Particulars: 72 h continuous exposure.
Text: as §1

The test system of a further assay is HT29/MIT. Nature of the assay: Cytostatic activity in vitro, mitoxantrone-induced resistant subline HT29/MIT. The assay is classed as cell-based, human.
Text: as §4

For the next assay, the system named is MCF7/DX. Nature of the assay: Cytostatic activity in vitro, resistant breast cancer subline MCF7/DX (MDR-1). The assay is classed as cell-based, human.
Text: as §3

In a further assay the test system is CT-DNA. Nature of the assay: Interaction with isolated CT-DNA, fluorescence competition with ethidium bromide. In kind it is binding. Particulars: for IC50: 50% decrease in fluorescence intensity of DNA-bromide ethydine complex; for Kapp relative constant of DNA-compound bonding: Kapp = (1.26/C50) × KEtBr, KEtBr = 10^7M. The text has this: It could be supposed that this property explains cytostatic activity of compounds. In Table 9 there are presented quantitative data on the affinity to DNA of tested compounds using the fluorescence method and competitive affinity to DNA of bromine ethydine and tested compounds.

The test system of assay [8] is HL60/VINC. Nature of the assay: Cytostatic activity in vitro, vincristine-induced resistant subline (MDR-1). The assay is classed as cell-based, human. Particulars: for IC50: 72 h continuous exposure; for RI resistance index HL60/VINC: IC50(resistant cells)/IC50(sensitive cells), HL60/VINC vs HL60, 72 h.
Text: as §2

For assay [9], the system named is human prostate cancer cell line LNCaP. Nature of the assay: Cytostatic activity in vitro, prostate cancer LNCaP. The assay is classed as cell-based. Particulars: 72 h continuous exposure.
Text: as §1

Assay [10] concerns HL60/DX. Nature of the assay: Cytostatic activity in vitro, doxorubicin-induced resistant subline (MRP). The assay is classed as cell-based, human. As to conditions: for IC50: 72 h continuous exposure; for RI resistance index HL60/DX: IC50(resistant cells)/IC50(sensitive cells), HL60/DX vs HL60, 72 h.
Text: as §2

One may read the IC50 as the point on the concentration scale where inhibition reaches its midpoint. As for `CN(C)CCn1nc2c3c(c(NCCN)ccc3c1=O)C(=O)c1ccccc1-2` [BS-121, 2-[2-(Dimethylamino)ethyl]-6-[2-(aminoethyl)amino)-2,7-dihydro-3H-dibenzo[de,h]cynnoline-3,7-dione], the 50% inhibitory concentration (IC50) in assay [1] was 37.6 ± 8.1 nM; in assay [3], 1.3 ± 0.1 nM; in assay [5] it was 39.6 ± 0.8 nM; in assay [6], 9.7 ± 1 nM; in [7] it was 11.3 ± 2.6 nM; in the assay with HT29/MIT (72 h continuous exposure), 39.4 ± 4.3 nM. Further, the half-maximal inhibitory concentration (IC50) in the assay on MCF7/DX (72 h continuous exposure) came to 45.3 ± 8.1 nM; in the assay on CT-DNA it was 260 ± 20 nM; in the assay with HL60/VINC [8], 14.2 ± 1.7 nM; in [9], 5.5 ± 0.7 nM; with HL60/DX [10], 564 ± 72 nM. The “Effect of blocking MDR-1 pump with cyclosporine A (CSA) on cytostatic activity” value with HL60/VINC [2] was “does not essentially affect the cytostatic activity”. Moreover, in the assay with HL60/DX [4], the “Effect of MRP protein inhibitor (BSO) on cytostatic activity” value was “only partially”. Also, the “RI resistance index HT29/MIT” value in the assay with HT29/MIT (IC50(resistant cells)/IC50(sensitive cells), HT29/MIT vs HT29) turned out to be 4.1. For the same molecule, the “RI resistance index MCF7/DX” value in the assay on MCF7/DX (IC50(resistant cells)/IC50(sensitive cells), MCF7/DX vs MCF7) is recorded as 1.1. Besides, the Kapp relative constant of DNA-compound bonding with CT-DNA is 4.83e+07 M⁻¹. Moreover, the “RI resistance index HL60/VINC” value in the assay with HL60/VINC [8] is listed as 10.9. Besides, the “RI resistance index HL60/DX” value in the assay on HL60/DX [10] is 433.8.

As for `CCCCNCCNc1ccc2c(=O)[nH]nc3c2c1C(=O)c1ccccc1-3` [PDZ-9, 6-(2-Butylaminoethylamino)-2,7-dihydro-3H-dibenzo[de,h]cynnoline-3,7-dione], the IC50 amounted to 1250 ± 206 nM in assay [1]; 311 ± 54 nM in assay [3]; 558 ± 129 nM in assay [7]; 2100 ± 100 nM with CT-DNA; 574 ± 12 nM with HL60/VINC [8]; 427 ± 80 nM in assay [9]. The molecule also yielded an IC50 with HL60/DX [10] of 1180 ± 94 nM. In addition, the Kapp relative constant of DNA-compound bonding with CT-DNA came out at 6e+06 M⁻¹. Moreover, the “RI resistance index HL60/VINC” value with HL60/VINC [8] is reported as 1.8. Further, in the assay with HL60/DX [10], the “RI resistance index HL60/DX” value turned out to be 3.8.

With `CN(C)CCn1nc2c3c(c(NCc4ccccc4)ccc3c1=O)C(=O)c1ccccc1-2` [PDZ-8, 2-[2-(Dimethylamino)ethyl]-6-(N-benzylamino)-2,7-dihydro-3H-dibenzo[de,h]cynnoline-3,7-dione], the 50% inhibitory concentration (IC50) was 1710 ± 125 nM in assay [1]; 719 ± 27 nM in assay [3]; 1220 ± 142 nM in [7]; 7290 ± 280 nM with CT-DNA; 850 ± 93 nM with HL60/VINC [8]; 683 ± 17 nM in [9]. Also, in the assay with HL60/DX [10], the IC50 was 4800 ± 1330 nM. The same molecule had a Kapp relative constant of DNA-compound bonding in the assay with CT-DNA of 1.7e+06 M⁻¹. The “RI resistance index HL60/VINC” value with HL60/VINC [8] stood at 1.2. For the same molecule, the “RI resistance index HL60/DX” value in the assay with HL60/DX [10] was 6.7.

Regarding `CC(=O)Nc1ccc2c(=O)n(CCN(C)C)nc3c2c1C(=O)c1ccccc1-3` [PDZ-14, 2-[2-(Dimethylamino)ethyl]-6-(acetylamino)-2,7-dihydro-3H-dibenzo[de,h]cynnoline-3,7-dione], the IC50 in assay [1] worked out at 85.5 ± 10.1 nM; in [3], 28 ± 6 nM; in assay [7] it was 32.8 ± 1.4 nM; with CT-DNA, 990 ± 10 nM; with HL60/VINC [8] it was 79 ± 7 nM; in assay [9] it was 44.8 ± 5.6 nM. In addition, in the assay with HL60/DX [10], the IC50 was 870 ± 173 nM. The Kapp relative constant of DNA-compound bonding in the assay with CT-DNA was 1.27e+07 M⁻¹. In addition, the “RI resistance index HL60/VINC” value with HL60/VINC [8] is listed as 2.8. Also, the “RI resistance index HL60/DX” value with HL60/DX [10] was 31.1.
